Series [1] concerns the target T1, immobilized human serum albumin (Homo sapiens, UniProt P02768).
T1 construct: purchased Chiralpak (Chiraltech) 34712
The experiment in a line: Albumin binding: affinity chromatography on columns with immobilized human serum albumin (net retention time). To be noted: isolated binders; HSA column 25° C., PBS pH 7.4/isopropanol gradient. Here is the method:
In order to identify suitable binder molecules, which when bound to a peptide, such as an insulin, are able to improve the half-life in plasma and to prolong the profile of action, a system was established based on affinity chromatography with serum albumin columns, i.e. columns with immobilized serum albumin.
The net retention time of the binders (samples) was calculated according to the following formula: Net retention time=RetTimeSample−RetTimet0 marker
• Instrument: Waters Alliance 2795/Waters PDA 2996 or Waters H-Class UPLC equipped with a Waters Acquity photodiode-array detector • Software: Waters Empower 3 • Column: […]® HSA 50×4 mm; 5 μm Particle size • Chiraltech Order Numbers: HSA: 34712 • Eluent A: Phosphate Buffer saline (PBS) at pH=7.4 • Gibco PBS pH7.4 (10×) Phosphate Buffered Saline 500 ml; • Order Number: 70011-036 (500 ml) • Eluent B: Isopropanol • Fisher Order Number: A461-1 (10 • Gradient:
• Column temperature: 25° C. • Flow rate: 1.0 ml/min • Detection: λ=220 nm • Injection volume: 20 μL • Sample Conc.: 1 mg/ml insulin solution in PBS for insulin samples • 5 μL of 10 mM DMSO stock solution (DMSO evaporated and re-dissolved in 200 μL i-propanol/water 1:1 v/v) for isolated binder samples (250 μM, 0.2 mg/ml at 800 Da MolWeight) • t0 marker Sodium Nitrate (NaNO3) solution in water, 0.05 mg/ml • Diluted from aqueous 1 mg/ml stock solution (Fluka Order Number: 74246-100ML) • Reported Value Net retention time of sample: RetTime Sample−RetTime t0 marker
Affinity chromatography was carried out i) for insulin conjugates according to Examples 3.3 and 3.4 on a Waters Alliance Separation Module 2695 equipped with a Waters photodiode-array detector 2996 or Waters H-Class UPLC equipped with a Waters Acquity photodiode-array detector and ii) for isolated binders according to Example 2.11 on a Waters Alliance Separation Module 2795 equipped with a Waters photodiode-array detector 2996 or Waters H-Class UPLC equipped with a Waters Acquity photodiode-array detector.
Columns with immobilized human serum albumin (50×4 mm; 5 μm particle size) were purchased from Chiralpak and used for separations.
The columns with immobilized serum albumin were kept at 25° C. during the LC run, UV detection was carried out at 220 nm and injection volume was 20 μL.
The net retention time of the samples was reported according to Net retention time=RetTime Sample−RetTime t0 marker

Series [2] addresses T2, insulin receptor isoform B (IR-B) (Homo sapiens, UniProt P06213). As to the kind of experiment: Insulin receptor autophosphorylation assay (In-Cell Western, CHO cells, Example 8B). More on the design: expressed in transfected cells; host or cells: CHO cells. To be noted: relative to human insulin. Format: cell-based.
For series [3], the target named is T2, insulin receptor isoform B (IR-B). As to the kind of experiment: Insulin receptor binding affinity assay of insulin analogs (Example 8A, SPA competition binding). More on the design: expressed in transfected cells; host or cells: CHO cells overexpressing the IR; isolated plasma membranes. The following applies: relative to human insulin; a value of 0 means below the detection limit. Here is the method:
Methods for determining the binding affinity of an insulin analog to an insulin receptor are well known in the art. […] The insulin receptor can be present in a membrane of a cell, e.g. of CHO (Chinese Hamster Ovary) cell, which overexpresses a recombinant insulin receptor. In an embodiment, the insulin receptor binding affinity is determined as described in the Examples section.
Insulin receptor binding affinity for the analogs listed in Table 4 was determined as described in Hartmann et al. (Effect of the long-acting insulin analogs glargine and degludec on cardiomyocyte cell signaling and function. Cardiovasc Diabetol. 2016; 15:96). Isolation of insulin receptor embedded plasma membranes (M-IR) and competition binding experiments were performed as previously described (Sommerfeld et al., PLoS One. 2010; 5 (3): e9540). Briefly, CHO-cells overexpressing the IR were collected and re-suspended in ice-cold 2.25 STM buffer (2.25 M sucrose, 5 mM Tris-HCl pH 7.4, 5 mM MgCl2, complete protease inhibitor) and disrupted using a Dounce homogenizer followed by sonication. The homogenate was overlaid with 0.8 STM buffer (0.8 M sucrose, 5 mM Tris-HCl pH 7.4, 5 mM MgCl2, complete protease inhibitor) and ultra-centrifuged for 90 min at 100,000 g. Plasma membranes at the interface were collected and washed twice with phosphate buffered saline (PBS). The final pellet was re-suspended in dilution buffer (50 mM Tris-HCl pH 7.4, 5 mM MgCl2, complete protease inhibitor) and again homogenized with a Dounce homogenizer. Competition binding experiments were performed in a binding buffer (50 mM Tris-HCl, 150 mM NaCl, 0.1% BSA, complete protease inhibitor, adjusted to pH 7.8) in 96-well microplates. In each well 2 μg isolated membrane was incubated with 0.25 mg wheat germ agglutinin polyvinyltoluene polyethylenimine scintillation proximity assay (SPA) beads. […] The radioactivity was measured at equilibrium in a microplate scintillation counter (Wallac Microbeta, Freiburg, Germany).”

Series [4] addresses Insulin degrading enzyme, IDE (Homo sapiens, UniProt P14735). The experiment in a line: In vitro proteolytic stability against insulin degrading enzyme (Example 9). To be noted: 37° C., 2 μM. Format: in vitro ADME.
Experimental: The stability determination was done using appropriate time points (for SIF and SGF 15, 30, 60, 120 and 240 minutes; for proteases 15, 30, 60 and 120 minutes). The incubation was done at 37° C. and the % of remaining parent compound was calculated in reference to a TO time point.
For the determination of the parent compound an appropriate bioanalytical LC-MS/MS or LC-HRMS method was used, using the supernatant, after protein precipitation with ethanol (1 eq. v/v) and a centrifugation step.
Compounds were dissolved in diluted hydrochloric acid at a final concentration of 40 μM. The compound concentration in the assay was 2 μM. A 1:20 dilution of the working solution was done into the protease buffer and samples are then incubated at 37° C., under stirring. At the appropriate time point and aliquot was taken, the reaction was quenched ethanol (1 eq. v/v), than centrifuged. The supernatant was analyzed.

Marks after values point to notes of the source that are not given here.

T2 sequence (P06213 28-758 limits assumed): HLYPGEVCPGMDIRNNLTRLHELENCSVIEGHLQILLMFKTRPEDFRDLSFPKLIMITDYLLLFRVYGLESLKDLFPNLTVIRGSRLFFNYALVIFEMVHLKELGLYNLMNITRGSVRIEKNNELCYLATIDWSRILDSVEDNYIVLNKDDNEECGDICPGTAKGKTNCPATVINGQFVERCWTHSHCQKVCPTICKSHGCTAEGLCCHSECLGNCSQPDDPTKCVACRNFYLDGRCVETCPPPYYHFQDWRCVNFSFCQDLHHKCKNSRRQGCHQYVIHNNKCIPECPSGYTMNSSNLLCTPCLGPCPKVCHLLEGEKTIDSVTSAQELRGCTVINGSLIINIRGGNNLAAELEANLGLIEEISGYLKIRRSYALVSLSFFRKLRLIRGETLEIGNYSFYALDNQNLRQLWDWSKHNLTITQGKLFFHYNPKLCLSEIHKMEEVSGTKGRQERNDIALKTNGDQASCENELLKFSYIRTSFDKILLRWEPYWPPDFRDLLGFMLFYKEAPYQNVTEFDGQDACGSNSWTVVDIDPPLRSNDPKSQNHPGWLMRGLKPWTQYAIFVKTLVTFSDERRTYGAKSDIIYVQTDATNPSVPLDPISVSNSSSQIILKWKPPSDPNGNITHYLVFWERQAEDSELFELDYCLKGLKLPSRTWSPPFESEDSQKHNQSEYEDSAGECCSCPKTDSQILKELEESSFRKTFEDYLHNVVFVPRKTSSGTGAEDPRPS
T2 sequence (P06213 763-1382 limits assumed): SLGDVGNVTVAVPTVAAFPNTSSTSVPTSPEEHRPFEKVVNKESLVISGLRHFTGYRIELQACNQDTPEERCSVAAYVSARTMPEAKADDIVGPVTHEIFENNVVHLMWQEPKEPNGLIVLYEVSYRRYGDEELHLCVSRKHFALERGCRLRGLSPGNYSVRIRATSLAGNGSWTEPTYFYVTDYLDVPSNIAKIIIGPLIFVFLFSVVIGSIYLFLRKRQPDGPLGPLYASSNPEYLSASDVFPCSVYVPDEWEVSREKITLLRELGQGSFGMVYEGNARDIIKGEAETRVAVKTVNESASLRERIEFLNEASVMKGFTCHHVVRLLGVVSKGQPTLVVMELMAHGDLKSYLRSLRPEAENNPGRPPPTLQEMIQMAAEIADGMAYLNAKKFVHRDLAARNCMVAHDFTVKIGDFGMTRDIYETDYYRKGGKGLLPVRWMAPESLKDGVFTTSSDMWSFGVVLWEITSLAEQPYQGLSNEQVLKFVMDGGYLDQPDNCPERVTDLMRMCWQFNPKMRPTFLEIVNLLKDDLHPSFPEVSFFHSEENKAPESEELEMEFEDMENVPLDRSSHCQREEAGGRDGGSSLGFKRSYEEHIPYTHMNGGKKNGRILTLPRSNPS
T1 sequence (P02768 25-609): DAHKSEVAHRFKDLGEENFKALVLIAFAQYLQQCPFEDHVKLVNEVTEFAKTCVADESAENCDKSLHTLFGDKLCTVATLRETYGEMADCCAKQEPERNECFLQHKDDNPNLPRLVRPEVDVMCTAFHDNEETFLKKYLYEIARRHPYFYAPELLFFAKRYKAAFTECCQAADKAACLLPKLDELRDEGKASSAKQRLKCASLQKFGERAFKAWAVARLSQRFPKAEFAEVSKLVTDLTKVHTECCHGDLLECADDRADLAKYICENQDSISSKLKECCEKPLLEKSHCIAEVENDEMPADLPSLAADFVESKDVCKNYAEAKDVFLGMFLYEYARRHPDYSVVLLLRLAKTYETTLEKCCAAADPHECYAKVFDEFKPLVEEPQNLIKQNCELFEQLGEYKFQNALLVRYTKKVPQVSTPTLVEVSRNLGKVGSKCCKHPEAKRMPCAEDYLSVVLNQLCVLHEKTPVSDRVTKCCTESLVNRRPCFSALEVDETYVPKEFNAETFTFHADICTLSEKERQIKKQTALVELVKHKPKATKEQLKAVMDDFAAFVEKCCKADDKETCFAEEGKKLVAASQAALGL

For `O=C(O)CCCCCCCCCCCOc1ccc(CCc2ccc(S(=O)(=O)Nc3ncc(C(=O)NCCOCCOCC(=O)NCCOCCOCC(=O)O)cn3)cc2)cc1` [Binder 3], the “NRT [min] (net retention time on columns with immobilized human serum albumin)” value (from here on “NRT [min]”) in series [1] amounted to 17.51 min. In series [2], this compound came in with an autophosphorylation activity of 0.34. Also, the Insulin-receptor binding affinity in series [3] was 0.24.

On to `O=C(O)CCCCCCCCCCCCCCCCCc1ccc(S(=O)(=O)Nc2ncc(C(=O)NCCOCCOCC(=O)NCCOCCOCC(=O)O)cn2)cc1` [Binder 4], for which, in series [1], the “NRT [min]” value is 15.75 min. The compound further came in with an autophosphorylation activity in series [2] of 0.4. This compound also returned an Insulin-receptor binding affinity in series [3] of 0.57.

Take `O=C(O)CCCCCCCCCc1ccc(CCOc2ccc(S(=O)(=O)Nc3ncc(C(=O)NCCOCCOCC(=O)NCCOCCOCC(=O)O)cn3)cc2)cc1` [Binder 10]: the “NRT [min]” value in series [1] is reported as 15.65 min. For the same compound, in series [2], the autophosphorylation activity is on record as 0.31. This compound also returned an Insulin-receptor binding affinity in series [3] of 0.37.

Consider `O=C(O)CCCCCCCCCCCCCc1ccc(Oc2ccc(S(=O)(=O)Nc3ncc(C(=O)NCCOCCOCC(=O)NCCOCCOCC(=O)O)cn3)cc2)cc1` [Binder 11], for which the “NRT [min]” value in series [1] came to 14.52 min. Besides, the autophosphorylation activity in series [2] was 0.06. Also, the “Percent remaining insulin analog, Insulin degrading enzyme, IDE (30 minutes)” value (“Percent remaining insulin analog” below) in series [4] was found to be 12%. The compound further displayed an Insulin-receptor binding affinity in series [3] of 0.01.

Regarding `O=C(O)CCCCCCCCCCCCCCc1cc(Oc2ccc(S(=O)(=O)Nc3ncc(C(=O)NCCOCCOCC(=O)NCCOCCOCC(=O)O)cn3)cc2)ccc1F` [Binder 13], in series [1], the “NRT [min]” value was determined as 15.29 min. This compound also gave an autophosphorylation activity in series [2] of 0.1. The same compound registered an Insulin-receptor binding affinity in series [3] of 0.11.

On to `O=C(O)CCCCCCCCCCCOc1ccc(S(=O)(=O)Nc2ncc(C(=O)NCCOCCOCC(=O)NCCOCCOCC(=O)O)cn2)cc1` [Binder 16], for which, in series [1], the “NRT [min]” value was found to be 11.88 min. This compound also displayed an autophosphorylation activity in series [2] of 0.29. Moreover, the “Percent remaining insulin analog” value in series [4] is 88%. This compound yielded an Insulin-receptor binding affinity in series [3] of 0.36.

Consider `O=C(O)CCCCCCCCCCCOc1ccc(S(=O)(=O)Nc2ccc(C(=O)NCCOCCOCC(=O)NCCOCCOCC(=O)O)cn2)cc1` [Binder 18], for which, in series [1], the “NRT [min]” value is 12.37 min. Besides, in series [2], the autophosphorylation activity turned out to be 0.18. In addition, the Insulin-receptor binding affinity in series [3] is given as 0.23.

Consider `O=C(O)CCCCCCCCCCCCCc1ccc(S(=O)(=O)Nc2ccc(C(=O)NCCOCCOCC(=O)NCCOCCOCC(=O)O)cn2)cc1` [Binder 20], for which the “NRT [min]” value in series [1] is 14.8 min. Further, the autophosphorylation activity in series [2] was 0.28. In series [3], this compound returned an Insulin-receptor binding affinity of 0.4.

As for `O=C(O)CCCCCCCCCCCCCCCc1cc(Oc2ccc(S(=O)(=O)Nc3ccc(C(=O)NCCOCCOCC(=O)NCCOCCOCC(=O)O)cn3)cc2)ccc1F` [Binder 23], the “NRT [min]” value in series [1] worked out at 15.61 min. This compound also yielded an autophosphorylation activity in series [2] of 0.37. The “Percent remaining insulin analog” value in series [4] came out at 80%. In addition, the Insulin-receptor binding affinity in series [3] turned out to be 0.56.

As to `O=C(O)CCCCCCCCCCCOc1ccc(CCc2ccc(S(=O)(=O)Nc3ccc(C(=O)NCCOCCOCC(=O)NCCOCCOCC(=O)O)cn3)cc2)cc1` [Binder 25], the “NRT [min]” value in series [1] is listed as 17.48 min. In series [2], this compound displayed an autophosphorylation activity of 0.03. In addition, the Insulin-receptor binding affinity in series [3] was determined as 0.02.

Regarding `O=C(O)CCCCCCCCCc1ccc(CCOc2ccc(S(=O)(=O)Nc3ccc(C(=O)NCCOCCOCC(=O)NCCOCCOCC(=O)O)cn3)cc2)cc1` [Binder 26], the “NRT [min]” value in series [1] amounted to 14.98 min. Further, in series [2], the autophosphorylation activity turned out to be 0.07. Also, the Insulin-receptor binding affinity in series [3] came to 0.01.

`O=C(O)CCCCCCCCCCCc1cc(Oc2ccc(S(=O)(=O)Nc3ncc(C(=O)NCCOCCOCC(=O)NCCOCCOCC(=O)O)cn3)cc2)ccc1F` [Binder 28]: the “NRT [min]” value in series [1] came out at 15.39 min. This compound also registered an autophosphorylation activity in series [2] of 0.11. This compound also came in with an Insulin-receptor binding affinity in series [3] of 0.12.

As to `O=C(O)CCCCCCCCCCCCCc1ccc(S(=O)(=O)Nc2ccc(C(=O)NCCOCCOCC(=O)NCCOCCOCC(=O)O)cn2)cc1` [Binder 30], in series [1], the “NRT [min]” value turned out to be 14.36 min. Also, in series [2], the autophosphorylation activity was determined as 0.01. Further, the Insulin-receptor binding affinity in series [3] is 0**.

In the case of `O=C(O)CCCCCCCCCCCCCCCCCc1ccc(S(=O)(=O)Nc2ccc(C(=O)NCCOCCOCC(=O)NCCOCCOCC(=O)O)cn2)cc1` [Binder 31], in series [1], the “NRT [min]” value was found to be 15.77 min. For the same compound, the autophosphorylation activity in series [2] came out at 0.13. In series [3], this compound showed an Insulin-receptor binding affinity of 0.12.

Regarding `O=C(O)CCCCCCCCCCCCCOc1ccc(S(=O)(=O)Nc2ccc(C(=O)NCCOCCOCC(=O)NCCOCCOCC(=O)O)cn2)cc1` [Binder 32], the “NRT [min]” value in series [1] is listed as 13.9 min. Further, the autophosphorylation activity in series [2] is recorded as 0.04. This compound also had an Insulin-receptor binding affinity in series [3] of 0.

As for `O=C(O)CCCCCCCCCCCCCOc1ccc(S(=O)(=O)Nc2ncc(C(=O)NCCOCCOCC(=O)NCCOCCOCC(=O)O)cn2)cc1` [Binder 33], the “NRT [min]” value in series [1] is 13.57 min. In series [2], this compound returned an autophosphorylation activity of 0.02. In series [3], the Insulin-receptor binding affinity is reported as 0.01.

As for `O=C(O)CCCCCCCCCCCCCCCOc1ccc(S(=O)(=O)Nc2ccc(C(=O)NCCOCCOCC(=O)NCCOCCOCC(=O)O)cn2)c(Cl)c1Cl` [Binder 36], the “NRT [min]” value in series [1] is given as 13.89 min. Also, the autophosphorylation activity in series [2] stood at 0.23. This compound also had an Insulin-receptor binding affinity in series [3] of 0.17.

With `O=C(O)CCCCCCCCCCCCCCCOc1ccc(S(=O)(=O)Nc2ccc(C(=O)NCCOCCOCC(=O)NCCOCCOCC(=O)O)cn2)cc1F` [Binder 39], in series [1], the “NRT [min]” value stood at 13.68 min. In series [2], this compound displayed an autophosphorylation activity of 0.02. The Insulin-receptor binding affinity in series [3] was 0.

As to `O=C(O)CCCCCCCCCCCc1cccc(S(=O)(=O)Nc2ccc(C(=O)NCCOCCOCC(=O)NCCOCCOCC(=O)O)cn2)c1` [Binder 40], in series [1], the “NRT [min]” value is reported as 11.44 min. In series [2], this compound registered an autophosphorylation activity of 0.01. Also, the Insulin-receptor binding affinity in series [3] was 0.01.

(Values after US11098102B2, “Insulin conjugates” (SANOFI, priority 2018, dated 2021).)
